According to US20160030409A1, “METHOD FOR RELIEVING CHRONIC PAIN” (priority 2014, published 2016):

System: chronic non-malignant pain due to fibromyalgia and osteoarthritis
Experiment: Trial experiment: Naropin injected into tender points of a patient with chronic non-malignant pain
Format: in vivo
Protocol: The patient was treated with the anesthetic Naropin® (generically known as ropivacaine), by injecting 0.5 cc of the anesthetic, by needle, into most tender points above and below the knees. Naropin was administered at a concentration of 5 mg/ml.
Subsequently, after sufficient time had elapsed for the previously injected Naropin to leave the patient's body, 0.5 cc of Naropin was once again administered, at a concentration of 5 mg/ml, using the Medical International Technology, Inc. (MIT) Med-Jet® H™ needleless, pressure-based injector. The injector was set at a pressure of 150 psig. For knee pain, most tender points, approximately five to eight, above and below the knees were injected. For hip pain, most tender points, approximately five, above the trochanteric bursa were injected. For back pain, most tender points, approximately ten on each side of the back, around the sacroiliac joints were injected. A single injection was administered for each tender point selected for injection. The administration of the local anesthetic by needleless injection left painful welts at each injection site, which took approximately two to three weeks to disappear.

time for welts to disappear (needleless injection, 150 psig): two to three
injection site reaction (needleless injection, 150 psig, each injection site): painful welts
SMILES: CCCN1CCCC[C@H]1C(=O)Nc1c(C)cccc1C [Naropin, ropivacaine]
tenderness of tender points after the welts had disappeared (0.5 cc at 5 mg/ml by Med-Jet H needleless pressure-based injector at 150 psig): no longer tender
pain after the welts had disappeared (0.5 cc at 5 mg/ml by Med-Jet H needleless pressure-based injector at 150 psig, tender points of knees, hip, back): pain was diminished
pain relief (0.5 cc at 5 mg/ml injected by needle into most tender points above and below the knees, middle-aged patient): No pain relief
